Test results as given in patent US7534606B2, “Placental stem cell and methods thereof” (National Health Research Institutes, priority 2004, dated 2009).
Like-named read-outs stand apart in the source and are kept apart here.

Experiments:
placental stem cells [1] = format: cell-based
Procedure: Immunocytochemistry and immunofluorescence and RT-PCR. Cultured cells were fixed with 4% paraformaldehyde for 5 minutes at room temperature and permeabilized with 0.1% Triton-X 100 for 20 minutes. Slides were then incubated sequentially with primary antibody overnight at 4° C. For immunocytochemistry, primary antibodies against NSE (Sigma) (1:25) was applied, followed by biotinylated anti-rabbit antibody and an avidin-biotin conjugate of hourseradish peroxidase (Vector Laboratories, Burlingame, Calif., USA). For immunofluorescence staining, primary antibodies against NeuN (Chemicon International Inc., Temecula, Calif., USA) (1:100), Nestin (BD Biosciences) (1:100), GFAP (glial fibrillary acidic protein, Chemicon International Inc.) (1:100), MAP2 (microtubule-associated protein 2, Chemicon International Inc.) (1:200), and NG2 (Chemicon International Inc.) (1:50) were used. Cy3 or fluorescein-labeled secondary antibodies were then applied for 1 hour at 37° C., and stained with 4′, 6-diamino-2-phenylindole (DAPI) (KPL Inc. Gaithersburg, Mass., USA) to identify cell nuclei. Cells were visualized by confocal fluorescence microscopy (Zeiss, LSM 510).
For RT-PCR, total RNA was isolated from cultured cells using Purescript (Gentra System, Minneapolis, Minn., USA), and 2 μg of total RNA was used for reverse transcription using Superscript II (Invitrogen, Carlsbad, Calif., USA). The cDNA was synthesized using Taq Platinum (Invitrogen) and 0.025 μg/μl oligo(dT). An equal volume of each sample was used to amplify human genes with 1 μM of each of the following primers: for the human nestin gene 5′-CCC TGA CCA CTC CAG TTT A-3′ and 5′-GAG TCC TGG ATT TCCTTC-3′; for the human Oct-4 gene 5′-GTGAAGCTGGAGAAGGAGAAGCTG-3′ and 5′-CAAGGGCCGCAGCTTACACATG-3′; and for the neurofilament light-chain (NF-L) gene 5′-CCC GAC TCA GTT TCA CC-3′ and 5′-CAG CCT TAG ACG CCT C-3′. Human glyceraldehyde-3-phosphate dehydrogenase (GAPDH) primers (Clontech, Palo Alto, Calif., USA) were used as internal controls for the PCR reactions. The cDNA from each sample was amplified for 30 cycles (1 min at 94° C., 1 min at 65° C., and 1 min at 72° C.). The PCR products were then separated by electrophoresis on 1.5% agarose gels. The sequence of each PCR product was confirmed using automatic sequencing.
Placental stem cells obtained according to Example 1 were plated on 35 mm culture dishes without coating, or if coated, with fibronectin, gelatin, or poly-L-Lysine (Sigma). Cells were cultured in serum-free DMEM-LG (Gibco) at various densities and exposed to either 10 ng/ml basic fibroblastic growth factor (b-FGF)/20 ng/ml epidermal growth factor (EGF) (both from R&D), retinoic acid (RA) (Sigma) at 10^−6M, β-mercaptoethanol/dimethysulfoxide/butylated hydroxyanisole (1×10^−5M βME/2% DMSO/100 μM BHA) (Sigma), or 0.5 mM 1-methyl-3-isobutylxanthine (IBMX, Sigma) for 3 to 6 days. Cells were then harvested for RT-PCR and immunocytochemical analysis as described above.
Differentiation to neural-like cells was quantified as a percentage of the total number of […] stem cells grown under differentiation conditions. Cells were stained for NSE expression and analyzed under an invert microscope. Five non-overlapping low power images were captured from each sample. […] Total cell count was determined by staining with 4′,6-diamidino-2-phenylindole (DAPI), which stains nuclei specifically, or with anti-human nuclei antibody (1:50) (Chemicon International Inc.).

placental stem cells [2] = format: cell-based; details: after 24 hours of treatment; three independent experiments
[3] = system: human marrow stromal cells; details: Deng et al. 2001; cited from earlier work
[4] = IBMX-treated cultures, immunofluorescence

With `CC(C)Cn1c(=O)n(C)c(=O)c2[nH]cnc21` [IBMX, 1-methyl-3-isobutylxanthine] the “morphological changes (cytoplasm retracted, extensions)” value (placental stem cells [1]; 3 to 6 days in medium, RA 10^−6M, IBMX 0.5 mM, compared with expansion medium) was “morphological changes”, the “NSE expression compared with control cells” value (placental stem cells [1]; 3 to 6 days in medium, immunocytochemical staining) was “higher levels of NSE” and the “astrocytes (GFAP) of the total cell count” value (placental stem cells [1]; [4]) was roughly 1%. For the same compound, the “neurons (MAP2) of the total cell count” value (placental stem cells [1]; [4]) was “approximately 16%”, the “oligodendrocytes (NG2) of the total cell count” value (placental stem cells [1]; [4]) was roughly 17% and the “placental stem cells differentiated” value (placental stem cells [1]; after 5 days of treatment, three independent experiments) was “more than 40%”. The “expression of neural filament light chain (NF-L) by RT-PCR” value (placental stem cells [1]; after five days of treatment) was “detected”, the “dose dependence of induced differentiation” value (placental stem cells [1]; data not shown) was “dose-dependent effect” and the “effect of removal from the culture medium” value (placental stem cells [1]; data not shown) was “reversion of the cells to their original phenotype”. The “time to first morphological changes” value (placental stem cells [1]; in a portion of placental stem cells) was 2 hours, the “placental stem cells differentiated” value (placental stem cells [2]) was 7% and the “expression of GFAP” value [3] was “no expression of GFAP”. The “expression of NSE” value [3] was “increased expression of NSE”.

With `CC1=C(/C=C/C(C)=C/C=C/C(C)=C/C(=O)O)C(C)(C)CCC1` [RA, retinoic acid] the “differentiation into neural-like cells” value (placental stem cells [1]; after 6 days of incubation, RA 10^−6M, IBMX 0.5 mM, retracted cell bodies and positive NSE staining, % of total cells) was “about 10%”.
